Legend:
Assay in all cases: relative viability (nuclei count vs DMSO), 5 days (fraction); higher = more cells survive
[1] = compound: CS(=O)(=O)N1CCN(Cc2cc3nc(-c4cccc5[nH]ncc45)nc(N4CCOCC4)c3s2)CC1 [Pictilisib] + C[C@]1(O)C[C@@H](c2nc(-c3ccc4ccc(-c5ccccc5)nc4c3)c3c(N)nccn32)C1 [Linsitinib] (partner 1 µM)
How it was run: (§1)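 For relative viability, nuclei counts in treated wells were divided by those in vehicle wells. Lung cancer cell lines had been pin-tool dosed in 1536-well plates the day after seeding and cultured for 5 days, then fixed and stained in one step (final 0.05% Triton X-100, 1% formaldehyde, 1 ug/ml Hoechst) and imaged at 4×. Doses were one drug alone or a fixed anchor-drug dose plus five library-drug doses (not always all listed) in √10 steps, and values are duplicate-plate medians.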

[2] = compound: CS(=O)(=O)N1CCN(Cc2cc3nc(-c4cccc5[nH]ncc45)nc(N4CCOCC4)c3s2)CC1 [Pictilisib] + Nc1nc2[nH]cc(CCc3ccc(C(=O)N[C@@H](CCC(=O)O)C(=O)O)cc3)c2c(=O)[nH]1 [Pemetrexed] (partner 0.2 µM)
How it was run: as §1

[3] = compound: NC1(c2ccc(-c3nc4ccn5c(=O)[nH]nc5c4cc3-c3ccccc3)cc2)CCC1 [MK-2206] + COc1cccc2cc(-c3nc([C@H]4CC[C@H](C(=O)O)CC4)n4ncnc(N)c34)[nH]c12 [OSI-027] (partner 0.5 µM)
How it was run: as §1

[4] = compound: NC1(c2ccc(-c3nc4ccn5c(=O)[nH]nc5c4cc3-c3ccccc3)cc2)CCC1 [MK-2206] + N=C(N)NC(=N)NCCc1ccccc1 [Phenformin] (partner 250 µM)
How it was run: as §1

[5] = compound: CS(=O)(=O)N1CCN(Cc2cc3nc(-c4cccc5[nH]ncc45)nc(N4CCOCC4)c3s2)CC1 [Pictilisib] + CCNC(=O)c1noc(-c2cc(C(C)C)c(O)cc2O)c1-c1ccc(CN2CCOCC2)cc1 [Luminespib] (partner 0.01 µM)
How it was run: as §1

Cell Line	relative viability ([1]; first compound 0.02 µM)	relative viability ([1]; first compound 0.06325 µM)	relative viability ([1]; first compound 0.6325 µM)	relative viability ([1]; first compound 2 µM)	relative viability ([2]; first compound 0.02 µM)	relative viability ([2]; first compound 0.06325 µM)	relative viability ([2]; first compound 0.6325 µM)	relative viability ([2]; first compound 2 µM)	relative viability ([3]; first compound 0.01 µM)	relative viability ([3]; first compound 0.3162 µM)	relative viability ([3]; first compound 1 µM)	relative viability ([4]; first compound 0.01 µM)	relative viability ([4]; first compound 0.3162 µM)	relative viability ([4]; first compound 1 µM)	relative viability ([3]; first compound 0.03162 µM)	relative viability ([4]; first compound 0.03162 µM)	relative viability ([5]; first compound 0.02 µM)	relative viability ([5]; first compound 0.06325 µM)	relative viability ([5]; first compound 0.6325 µM)	relative viability ([5]; first compound 2 µM)
HCC-78	0.508	0.413	0.318	0.226	0.894	0.911	0.861	0.893	0.394	0.351	0.285	0.7	0.753	0.524						
HCC-366	0.776	0.448	0.256	0.0873	0.172	0.195	0.248	0.122	0.927	0.569	0.44	0.614	0.564	0.39	0.962	0.686				
HCC-827	0.938	1.01	1.03	0.711	0.265	0.28	0.196	0.221	0.78	0.655	0.391	0.45	0.402	0.326	0.871	0.434	1.01	0.472	0.224	0.152
HOP-62	1.03	0.868	0.759	0.779	0.319	0.271	0.267	0.271	0.808	0.74	0.828	0.62	0.701	0.699	0.808	0.725	1.01	0.906	0.803	0.874
IA-LM	0.482	0.7	0.757	0.249																
LC-2-ad	0.848	0.801	0.326	0.36	0.277	0.278	0.272	0.23	0.76	0.592	0.383	0.544	0.532	0.365	0.837	0.589	1.17	1.07	0.757	0.607
LCLC-97TM1	0.17	0.161	0.189	0.17	0.155	0.169	0.169	0.147	0.698	0.249	0.361	0.431	0.315	0.384	0.498	0.48	0.751	0.867	0.442	0.224
LCLC-103H	1.14	1.14	0.814	0.716	0.468	0.419	0.475	0.428	0.476	0.445	0.408	0.304	0.351	0.314	0.459	0.321	0.989	0.903	0.606	0.438
LK-2	0.609	0.537	0.526	0.426	0.247	0.281	0.116	0.14	0.179	0.181	0.151	0.302	0.315	0.174	0.199	0.543	0.198	0.144	0.152	0.188
LOU-NH91	1.02	0.918	0.798	0.557	0.381	0.368	0.4	0.372	0.72	0.668	0.555	0.682	0.683	0.555	0.695	0.727	0.347	0.338	0.321	0.274
NCI-H522					1.08	1.1	0.796	0.481	0.867	0.615	0.631	0.605	0.627	0.613	0.726	0.681	1.01	0.939	0.894	0.788
NCI-H727	0.267	0.318	0.228	0.258					0.479	0.537	0.52	0.607	0.533	0.592	0.615	0.71	0.443	0.334	0.29	0.346
NCI-H1299	1.03	1.01	0.991	0.864																
NCI-H1623									0.44	0.411	0.355	0.555	0.574	0.605	0.426	0.592	0.452	0.455	0.379	0.303
NCI-H1648					0.72	0.802	0.614	0.41	0.256	0.279	0.251				0.246					
NCI-H1650					0.325	0.361	0.358	0.302	0.58	0.488	0.39	0.509	0.388	0.384	0.66	0.465	0.224	0.175	0.201	0.207
NCI-H1703	1.19	0.634	0.347	0.137																
NCI-H2170					0.268	0.273	0.249	0.228	0.747	0.625	0.588	0.398	0.426	0.404	0.701	0.44	0.715	0.65	0.419	0.166
NCI-H2342					0.695	0.782	0.677	0.528	0.649	0.555	0.484	0.657	0.542	0.417	0.614	0.594	0.669	0.586	0.588	0.365
SW 900					0.499	0.478	0.477	0.27	0.728	0.416	0.481	0.656	0.451	0.538	0.542	0.71	0.183	0.15	0.163	0.158
